Assay results as given in US9434763B2, “Derivatives of pyridinone as inhibitors for tissue transglutaminase” (ZEDIRA GMBH, priority 2012, dated 2016).

Molecular target: T1, TG2 in tissue sections (Mus musculus, UniProt P21981)
T1 construct: from tissue; host or cells: mouse small intestine cryosections (mucosa)
T1 sequence (P21981 1-686): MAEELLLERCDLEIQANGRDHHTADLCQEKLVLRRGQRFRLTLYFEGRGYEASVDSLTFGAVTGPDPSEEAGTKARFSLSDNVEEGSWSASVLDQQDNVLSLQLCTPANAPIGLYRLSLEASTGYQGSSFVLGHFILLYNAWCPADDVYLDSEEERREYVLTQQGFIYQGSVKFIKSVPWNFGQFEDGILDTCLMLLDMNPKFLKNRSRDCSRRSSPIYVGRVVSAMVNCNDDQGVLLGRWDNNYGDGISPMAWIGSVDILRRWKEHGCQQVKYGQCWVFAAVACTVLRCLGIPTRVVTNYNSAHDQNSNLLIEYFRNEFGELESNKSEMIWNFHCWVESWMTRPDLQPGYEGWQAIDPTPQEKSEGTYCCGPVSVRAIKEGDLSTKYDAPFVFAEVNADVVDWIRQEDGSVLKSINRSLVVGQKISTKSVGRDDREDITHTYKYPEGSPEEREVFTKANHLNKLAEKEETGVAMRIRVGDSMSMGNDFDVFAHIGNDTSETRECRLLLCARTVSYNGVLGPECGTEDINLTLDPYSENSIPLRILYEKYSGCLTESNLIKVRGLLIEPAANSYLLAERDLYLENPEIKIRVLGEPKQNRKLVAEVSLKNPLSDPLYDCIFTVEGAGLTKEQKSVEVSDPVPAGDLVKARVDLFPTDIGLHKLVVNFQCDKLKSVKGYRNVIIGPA
Assay: Ex vivo testing of inhibitors on small intestine sections of a control mouse
Settings: pre-incubated with 0.2 mg/ml and 0.02 mg/ml inhibitor
Experimental: After a washing step (1% BSA in PBS buffer), incubation was carried out with 4 μg/ml of the TG2 substrate biotinyl-TVQQEL (Zedira, product number B001) in the presence of 5 mM CaCl2 for 2 h at room temperature. The reaction was stopped with 25 mM EDTA. After one further washing, blocking, and washing step, the primary antibody against human TG2 was added (Zedira, product number A018, 25 μg/ml) and incubated for one hour at room temperature. After four wash steps, streptavidin-FITC (2 μg/ml, streptavidin-fluorescein-isothiocyanate) and Cy3-labeled goat anti-rabbit IgG antibodies (22.5 μg/ml) were added and incubated in the dark at room temperature for 40 min. TG2 was thus visible in the fluorescence microscope as red color (Cy3), whereas biotinyl-TVQQEL incorporated by transglutaminase activity was visualized by green staining (FITC). The superposition of both images led to a yellow color when active transglutaminase was present.
[…] Then the staining protocol as described in example 10 was carried out. In the control sections with 0.0 mg/ml inhibitor yellow staining in the mucosa of the small intestinal was detected, which is due to active TG2.

SMILES | TG2 inhibition in sections at the higher concentrations of inhibitor
CC[C@@H](C)[C@H](NC(=O)Cn1cccc(NC(=O)[C@H](CC/C=C/C(=O)OC)NC(=O)c2ccccc2)c1=O)C(=O)O [A61, (2S,3R)-2-(2-(3-((S,E)-2-benzamido-7-methoxy-7-oxohept-5-enamido)-2-oxopyridin-1(2H)-yl)acetamido)-3-methylpentanoic acid] | completely inhibited
CCC(CC)CNC(=O)Cn1cccc(NC(=O)[C@H](CC/C=C/C(=O)OC)NC(=O)c2cncn2C)c1=O [A63, (S,E)-Methyl 7-(1-(2-(2-ethylbutylamino)-2-oxoethyl)-2-oxo-1,2-dihydropyridin-3-ylamino)-6-(1-methyl-1H-imidazole-5-carboxamido)-7-oxohept-2-enoate] | completely inhibited
